This note sets out measurements from patent US20090221559A1 (priority 2005, published 2009).

What is called IC50 is the concentration at which inhibition is half-maximal. A higher IC50 goes with a need for much substance. The term EC50 denotes the midpoint of the concentration-response curve.

Assay [1] concerns the target T1, HCV NS5B polymerase (His-tagged, C-terminal 21 amino acid deleted NS5B, HC-J4) (Hepatitis C virus genotype 1b, UniProt O92972).
T1 construct: The cDNA encoding NS5B amino acid 1-570 (HC-J4, genotype 1b); His tag (His6, from pET-21b) (C); made in house; host or cells: E. coli BL21 (DE3)
Nature of the assay: NS5b polymerase assay (biochemical RdRp assay, 3H-GTP incorporation, SPA beads). Further details: species or system HCV genotype 1b. As to conditions: NS5B Polymerase Assay IC50 (μM). The gist of the method: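 His-tagged C-terminal-21-aa-deleted NS5B (genotype 1b, HC-J4) at 200 nM was preincubated 15 min at RT with compound on 5′-biotinylated oligo(rG13)/poly(rC) template/primer before NTPs. Reaction with 600 nM GTP plus 0.1 μCi 3H-GTP and 5 mM MgCl2 in Tris pH 7.5 ran 2 h at 25 °C. Stopped with EDTA/SPA beads for incorporation counting.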

Assay [2] deals with HCV replicon RNA replication in Huh-7 luc/neo (Huh-Luc) cells. In words: HCV replicon assay (stable replicon cell reporter assay, luciferase read-out). The class given is cell-based, HCV type 1b. Conditions: Hepatitis C virus, Huh-7, 72 h, read-out: Replicon Assay EC50 (μM), Huh-Luc cells, incubation of three days, luciferase activity. Summed up: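 Huh-7 cells stably carry a bicistronic HCV 1b NS3-NS5B subgenomic replicon with firefly luciferase and neo markers. Cells were plated with compound across a concentration range and incubated three days. Replication was measured as luciferase activity to give dose-response curves.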
A general note: In antiviral work, replicon cells carry a viral genome segment that copies itself.

Where only a bound is given, the exact number is not on record here.

T1 sequence (O92972 2417-3000, looked up, stated change not applied): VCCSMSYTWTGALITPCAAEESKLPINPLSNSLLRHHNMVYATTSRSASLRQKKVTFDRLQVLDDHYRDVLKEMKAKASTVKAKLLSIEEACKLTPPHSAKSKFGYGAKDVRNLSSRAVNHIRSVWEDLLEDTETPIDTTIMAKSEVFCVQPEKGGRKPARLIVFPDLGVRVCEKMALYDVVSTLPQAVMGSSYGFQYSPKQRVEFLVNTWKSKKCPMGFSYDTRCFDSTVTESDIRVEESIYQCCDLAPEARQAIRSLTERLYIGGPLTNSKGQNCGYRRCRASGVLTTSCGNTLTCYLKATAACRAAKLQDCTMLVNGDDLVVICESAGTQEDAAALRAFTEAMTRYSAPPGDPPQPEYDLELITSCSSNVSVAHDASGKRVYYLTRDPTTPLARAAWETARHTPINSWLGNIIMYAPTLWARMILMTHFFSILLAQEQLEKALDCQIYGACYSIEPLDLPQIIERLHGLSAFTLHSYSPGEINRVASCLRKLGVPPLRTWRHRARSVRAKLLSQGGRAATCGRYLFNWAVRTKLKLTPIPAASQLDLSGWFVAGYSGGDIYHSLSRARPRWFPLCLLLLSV

With `O=C1CC(c2ccc(Cl)cc2)CC2=C1C(c1cccc(F)c1)Nc1ccccc1N2` (centres unmarked) [compound 380], the IC50 in assay [1] was greater than 42.7 µM. Also, the EC50 in assay [2] was found to be 8.63 µM.
The compound `COc1ccc(C2CC(=O)C3=C(C2)Nc2ccccc2NC3c2ccccc2C)cc1` (centres unmarked) [compound 381] came in with an IC50 in assay [1] greater than 42.7 µM. Also, in assay [2], the concentration for a half-maximal effect (EC50) came out at 4.77 µM.
For `CSc1ccc(C2Nc3ccccc3NC3=C2C(=O)CC(c2ccc(Cl)cc2)C3)cc1` (centres unmarked) [compound 382] the same measures were greater than 42.7 µM and 16.7 µM.
`COc1ccc(C2CC(=O)C3=C(C2)Nc2ccccc2NC3c2ccccc2Cl)cc1` (centres unmarked) [compound 383]: the IC50 in assay [1] is greater than 42.7 µM. Also, in assay [2], the EC50 is 17.3 µM.
For `COc1ccc(C2CC(=O)C3=C(C2)Nc2ccccc2NC3c2ccc(C)cc2)cc1` (centres unmarked) [compound 384] the same measures were 4.58 µM and 15.9 µM.
For `COc1ccc(C2CC(=O)C3=C(C2)Nc2ccccc2NC3c2ccc(OCc3ccccc3)c(OC)c2)cc1` (centres unmarked) [compound 385] the same measures were greater than 42.7 µM and 3.54 µM.
In assay [1], `CCOc1cc(C2Nc3ccccc3NC3=C2C(=O)CC(c2ccc(OC)cc2)C3)ccc1OC(C)=O` (centres unmarked) [compound 386] showed an IC50 greater than 42.7 µM. Further, in assay [2], the 50% effective concentration (EC50) was greater than 29.6 µM.
The matching figures for `COc1ccc(C2CC(=O)C3=C(C2)Nc2ccccc2NC3c2ccc([N+](=O)[O-])cc2)cc1` (centres unmarked) [compound 387]: greater than 42.7 µM and 5.56 µM.
For `COc1ccc(C2CC(=O)C3=C(C2)Nc2ccccc2NC3c2ccc(OCc3ccccc3)cc2)cc1` (centres unmarked) [compound 388], the IC50 in assay [1] is greater than 42.7 µM. Further, the EC50 in assay [2] was 6.35 µM.
For `COc1ccc(C2CC(=O)C3=C(C2)Nc2ccccc2NC3c2ccc(Cl)c([N+](=O)[O-])c2)cc1` (centres unmarked) [compound 389] the same measures were greater than 42.7 µM and 5.58 µM.
The matching figures for `COc1ccc(C2CC(=O)C3=C(C2)Nc2ccccc2NC3c2ccccc2Br)cc1` (centres unmarked) [compound 390]: greater than 42.7 µM and 9.07 µM.
For the compound `COc1ccc(C2CC(=O)C3=C(C2)Nc2ccccc2NC3c2cccc(C)c2)cc1` (centres unmarked) [compound 391], in assay [1], the IC50 was greater than 42.7 µM. Besides, the EC50 in assay [2] stood at 18.5 µM.
The matching figures for `COc1ccc(C2CC(=O)C3=C(C2)Nc2ccccc2NC3c2cccc(O)c2)cc1` (centres unmarked) [compound 392]: greater than 42.7 µM and 22.6 µM.
Take `CCOc1ccccc1C1Nc2ccccc2NC2=C1C(=O)CC(c1ccccc1)C2` (centres unmarked) [compound 393]: the IC50 in assay [1] was greater than 33.3 µM. Further, the EC50 in assay [2] amounted to 6.84 µM.
The matching figures for `CCCOc1ccc(C2Nc3ccccc3NC3=C2C(=O)CC(c2ccc(OC)cc2)C3)cc1OC` (centres unmarked) [compound 394]: greater than 42.7 µM and 14.1 µM.
Take `Cc1ccc(C2Nc3ccccc3NC3=C2C(=O)CC(c2ccccc2Cl)C3)cc1` (centres unmarked) [compound 395]: the IC50 in assay [1] is greater than 42.7 µM. Further, in assay [2], the EC50 was 9.91 µM.
In assay [1], `O=C1CC(c2ccccc2)CC2=C1C(c1ccccc1[N+](=O)[O-])Nc1ccccc1N2` (centres unmarked) [compound 396] gave an IC50 greater than 42.7 µM. For the same compound, in assay [2], the EC50 is 11.3 µM.
For `COc1ccc(C2CC(=O)C3=C(C2)Nc2ccccc2NC3c2cc(Br)c(O)c(OC)c2)cc1OC` (centres unmarked) [compound 397] the same measures were greater than 42.7 µM and 6.13 µM.
For `COc1ccc(C2CC(=O)C3=C(C2)Nc2ccccc2NC3c2cc(OC)c(OC)cc2OC)cc1` (centres unmarked) [compound 398], the IC50 in assay [1] is greater than 42.7 µM. Also, in assay [2], the EC50 is 10.9 µM.
The matching figures for `CCOc1cc(C2Nc3ccccc3NC3=C2C(=O)CC(c2ccc(OC)c(OC)c2)C3)cc(Br)c1O` (centres unmarked) [compound 399]: greater than 42.7 µM and 19.4 µM.
The matching figures for `COc1ccc(C2CC(=O)C3=C(C2)Nc2ccccc2NC3c2cc(OC)c(OC)cc2Br)cc1` (centres unmarked) [compound 400]: greater than 42.7 µM and 3.28 µM.
The matching figures for `COc1ccc(C2CC(=O)C3=C(C2)Nc2ccccc2NC3c2cccc(OC)c2OC)cc1OC` (centres unmarked) [compound 401]: greater than 42.7 µM and 2.88 µM.
As to `COc1ccc(C2CC(=O)C3=C(C2)Nc2ccccc2NC3c2cc(Br)c(OC)c(OC)c2)cc1` (centres unmarked) [compound 402], the IC50 in assay [1] was greater than 42.7 µM. Besides, the EC50 in assay [2] came to 8.59 µM.
Consider `COc1ccc(C2CC(=O)C3=C(C2)Nc2ccccc2NC3c2cc(OC)c(OC)cc2OC)cc1OC` (centres unmarked) [compound 403], for which the IC50 in assay [1] is greater than 42.7 µM. Further, in assay [2], the EC50 was 7.12 µM.
`COc1ccc(C2CC(=O)C3=C(C2)Nc2ccccc2NC3c2cc(Br)ccc2OC)cc1OC` (centres unmarked) [compound 404] returned an IC50 in assay [1] greater than 42.7 µM. In addition, the EC50 in assay [2] was 3.24 µM.
In assay [1], `COc1ccc(C2CC(=O)C3=C(C2)Nc2ccccc2NC3c2ccc(OCc3ccccc3)c(OC)c2)cc1OC` (centres unmarked) [compound 405] registered an IC50 greater than 42.7 µM. Also, the EC50 in assay [2] turned out to be 5.34 µM.
With `CCOc1cc(C2Nc3ccccc3NC3=C2C(=O)CC(c2ccc(OC)cc2)C3)cc(Br)c1OC` (centres unmarked) [compound 406], the IC50 in assay [1] is greater than 42.7 µM. In assay [2], the EC50 came out at 7.29 µM.
The matching figures for `O=C1CC(c2ccccc2)CC2=C1C(c1ccccc1C(F)(F)F)Nc1ccccc1N2` (centres unmarked) [compound 407]: greater than 33.3 µM and 15.6 µM.
`Cc1ccc(C2CC(=O)C3=C(C2)Nc2ccccc2NC3c2ccc(C)cc2)cc1` (centres unmarked) [compound 408] yielded an IC50 in assay [1] greater than 33.3 µM. Further, the EC50 in assay [2] is 14.2 µM.
As to `Cc1ccc(C2Nc3ccccc3NC3=C2C(=O)CC(c2ccc(Cl)cc2)C3)cc1` (centres unmarked) [compound 409], the IC50 in assay [1] was greater than 33.3 µM. Besides, the 50% effective concentration (EC50) in assay [2] was 14.9 µM.
The compound `CCOc1cccc(C2Nc3ccccc3NC3=C2C(=O)CC(c2ccccc2)C3)c1` (centres unmarked) [compound 410] gave an IC50 in assay [1] greater than 33.3 µM. Besides, the EC50 in assay [2] turned out to be 22.6 µM.
The matching figures for `Cc1ccc(C2CC(=O)C3=C(C2)Nc2ccccc2NC3c2ccccc2Cl)cc1` (centres unmarked) [compound 411]: greater than 33.3 µM and 17.9 µM.
For `Cc1ccc(C2CC(=O)C3=C(C2)Nc2ccccc2NC3c2ccccc2F)cc1` (centres unmarked) [compound 412] the same measures were greater than 33.3 µM and 16.7 µM.
Compound `O=C1CC(c2ccco2)CC2=C1C(c1ccc(Cl)cc1)Nc1ccccc1N2` (centres unmarked) [compound 413] showed an IC50 in assay [1] greater than 33.3 µM. In addition, the EC50 in assay [2] was 12 µM.
In assay [1], `Cc1ccc(C2CC(=O)C3=C(C2)Nc2ccccc2NC3c2ccccc2)cc1` (centres unmarked) [compound 414] returned an IC50 greater than 33.3 µM. The EC50 in assay [2] was determined as 13.6 µM.
`COc1ccc(C2CC(=O)C3=C(C2)Nc2ccccc2NC3c2ccc(Cl)cc2)cc1OC` (centres unmarked) [compound 415] displayed an IC50 in assay [1] greater than 33.3 µM. Further, the 50% effective concentration (EC50) in assay [2] was determined as 14.7 µM.
In turn, `COc1ccc(C2CC(=O)C3=C(C2)Nc2ccccc2NC3c2ccc(Cl)cc2)cc1` (centres unmarked) [compound 416] came in with an IC50 in assay [1] greater than 33.3 µM. Moreover, in assay [2], the EC50 was determined as 11.2 µM.
The matching figures for `O=C1CCCC2=C1C(c1ccc(Cl)cc1Cl)Nc1ccccc1N2` (centres unmarked) [compound 421]: greater than 133 µM and 51.9 µM.
For `CC1CC(=O)C2=C(C1)Nc1ccccc1NC2c1ccc(Cl)cc1Cl` (centres unmarked) [compound 422, 11-(2,4-dichlorophenyl)-3-methyl-2,3,4,5,10,11-hexahydro-1H-dibenzo[b,e][1,4]diazepin-1-one] the same measures were greater than 133 µM and greater than 100 µM.
`CC1(C)CC(=O)C2=C(C1)Nc1ccccc1NC2c1ccc(Cl)cc1Cl` (centres unmarked) [compound 423, 11-(2,4-dichlorophenyl)-2,3,4,5,10,11-hexahydro-3,3-dimethyl-1H-dibenzo[b,e][1,4]diazepin-1-one] came in with an IC50 in assay [1] of 37.9 µM. Moreover, in assay [2], the EC50 was 26.4 µM.
For `COc1ccc(C2Nc3ccccc3NC3=C2C(=O)CC(C)(C)C3)cc1OCc1ccccc1` (centres unmarked) [compound 424] the same measures were 11.6 µM and 12.5 µM.
Regarding `CC1(C)CC(=O)C2=C(C1)Nc1ccccc1NC2c1ccccc1OCc1ccccc1` (centres unmarked) [compound 425], in assay [1], the IC50 was greater than 42.7 µM. In addition, the 50% effective concentration (EC50) in assay [2] amounted to 13.2 µM.
For `CC1(C)CC(=O)C2=C(C1)Nc1ccccc1NC2c1ccc(OCc2ccccc2)cc1` (centres unmarked) [compound 426] the same measures were 30.8 µM and 7.31 µM.
In assay [1], `CC1(C)CC(=O)C2=C(C1)Nc1ccccc1NC2c1cccc(Cl)c1Cl` (centres unmarked) [compound 427] displayed an IC50 greater than 42.7 µM. The EC50 in assay [2] worked out at 20.7 µM.
Turning to `CC1(C)CC(=O)C2=C(C1)Nc1ccccc1NC2c1c(F)cccc1Cl` (centres unmarked) [compound 428], in assay [1], the IC50 is greater than 42.7 µM. Further, the EC50 in assay [2] is 16 µM.
Take `CC1(C)CC(=O)C2=C(C1)Nc1ccccc1NC2c1ccc(C(F)(F)F)cc1` (centres unmarked) [compound 429]: in assay [1], the IC50 is greater than 42.7 µM. Further, the EC50 in assay [2] was greater than 31 µM.
The matching figures for `COc1ccc(C2Nc3ccccc3NC3=C2C(=O)CC(C)(C)C3)cc1COc1ccc(F)cc1F` (centres unmarked) [compound 430]: greater than 33.3 µM and 10.8 µM.
Compound `CC1(C)CC(=O)C2=C(C1)Nc1ccccc1NC2c1cccc(OC(=O)c2ccc(Cl)cc2)c1` (centres unmarked) [compound 431, 11-[3-(4-Chlorobenzoyloxy)phenyl]-3,3-dimethyl-2,3,4,5,10,11-hexahydro-dibenzo[b,e][1,4]diazepin-1-one] registered a 50% inhibitory concentration (IC50) in assay [1] of 82.9 µM. Also, the EC50 in assay [2] is greater than 100 µM.
For `CC1(C)CC(=O)C2=C(C1)Nc1ccccc1NC2c1ccccc1C(=O)O` (centres unmarked) [compound 432] the same measures were greater than 42.7 µM and 17.7 µM.
